Experimental data: patent US6355655B1, “Heterocyclic sulphonamide derivatives” (Eli Lilly and Company, priority 1998, dated 2002)

Target: T1, human GluR4B receptor (Homo sapiens, UniProt P48058)
T1 construct: expressed in transfected cells
Assay: Potentiation of agonist-induced excitability of human GluR4B receptor expressed in HEK 293 cells
Format: cell-based
Text: The ability of compounds of formula I to potentiate glutamate receptor-mediated response may be determined using fluorescent calcium indicator dyes (Molecular Probes, Eugene, Oreg., Fluo-3) and by measuring glutamate-evoked efflux of calcium into GluR4 transfected HEK293 cells, as described in more detail below.
In one test, 96 well plates containing confluent monolayers of HEK cells stably expressing human GluR4B (obtained as described in European Patent Application Publication Number EP-A1-583917) are prepared. The tissue culture medium in the wells is then discarded, and the wells are each washed once with 200 μl of buffer (glucose, 10 mM, sodium chloride, 138 mM, magnesium chloride, 1 mM, potassium chloride, 5 mM, calcium chloride, 5 mM, N-[2-hydroxyethyl]-piperazine-N-[2-ethanesulfonic acid], 10 mM, to pH 7.1 to 7.3). […]
Each test is then performed as follows. […] A second fluorescent reading is taken after 5 minutes incubation. 15 μl of 400 μM glutamate solution is then added to each well (final glutamate concentration 100 μM), and a third reading is taken. The activities of test compounds and cyclothiazide solutions are determined by subtracting the second from the third reading (fluorescence due to addition of glutamate in the presence or absence of test compound or cyclothiazide) and are expressed relative to enhance fluorescence produced by 100 μM cyclothiazide.

T1 sequence (P48058 21-902): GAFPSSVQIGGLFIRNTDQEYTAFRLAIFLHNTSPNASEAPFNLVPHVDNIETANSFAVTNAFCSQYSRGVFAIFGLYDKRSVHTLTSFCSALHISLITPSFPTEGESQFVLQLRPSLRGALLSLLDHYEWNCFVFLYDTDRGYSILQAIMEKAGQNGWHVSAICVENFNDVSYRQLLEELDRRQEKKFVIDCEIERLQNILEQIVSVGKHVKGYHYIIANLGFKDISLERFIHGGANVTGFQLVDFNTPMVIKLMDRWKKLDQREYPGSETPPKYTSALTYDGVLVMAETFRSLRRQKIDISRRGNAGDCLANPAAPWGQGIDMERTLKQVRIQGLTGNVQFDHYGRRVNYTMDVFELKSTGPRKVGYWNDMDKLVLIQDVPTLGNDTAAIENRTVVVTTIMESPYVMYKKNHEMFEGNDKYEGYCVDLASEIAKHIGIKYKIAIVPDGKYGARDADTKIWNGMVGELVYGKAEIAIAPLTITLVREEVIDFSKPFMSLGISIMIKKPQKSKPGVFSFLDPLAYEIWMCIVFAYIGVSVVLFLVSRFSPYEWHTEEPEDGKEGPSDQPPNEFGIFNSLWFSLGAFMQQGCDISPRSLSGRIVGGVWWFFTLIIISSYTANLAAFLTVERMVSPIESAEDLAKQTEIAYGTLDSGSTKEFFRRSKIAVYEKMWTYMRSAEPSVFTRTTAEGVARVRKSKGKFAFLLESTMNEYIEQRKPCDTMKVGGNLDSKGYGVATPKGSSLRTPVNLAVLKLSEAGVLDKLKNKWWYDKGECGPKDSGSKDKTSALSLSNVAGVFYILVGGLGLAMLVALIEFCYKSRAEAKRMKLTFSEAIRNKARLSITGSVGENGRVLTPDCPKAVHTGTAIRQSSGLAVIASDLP

NS(=O)(=O)c1cc2c(cc1Cl)NC(C1CC3C=CC1C3)NS2(=O)=O (stereo not shown) [cyclothiazide]
potentiation of agonist-induced excitability: potentiate agonist-induced excitability
